According to EP4678638A1, “NEW E3 UBIQUITIN LIGASE LIGAND, PROTEIN DEGRADATION AGENT AND USE THEREOF” (priority 2023, dated 2024):

System: H1975
Assay: CCK-8 proliferation, NCI-H1975 (H1975)
Format: cell-based, Human
Details: Homo sapiens, NCI-H1975; CCK-8; 96 hours; read-out: Inhibitory activity (IC50) on tumor cell proliferation, H1975
Method: The tumor cells used herein were cultured in a cell culture medium listed in table A1 at 37°C in an incubator with 5% CO2. Prior to experimentation, all cell lines used were correctly identified by STR profiling, and tested negative for mycoplasma contamination using a mycoplasma detection kit through routine screenings. Table A1. Tumor cells and cell culture medium used in the present disclosure
IC50 values of the compounds of the present disclosure (including the compounds in Table 1, and compounds of examples) were measured using the Meilun Cell Counting Kit-8 kit from Dalian Meilun Biotech Co., Ltd. Assay details are as follows: tumor cells were seeded in a 96-well plate at a density listed in Table A2. After 24h, 100 µL of the inoculated cells were treated with 0.5µL of the compounds of the present disclosure (including the compounds in Tables 1 and 2, and compounds of examples) at 10 different successively decreasing concentrations (starting at the highest concentration of 10µM; 5-fold serial dilutions). After the cells were treated with the compounds of the present disclosure for a period of time, the cell viability detection reagent was added to the culture medium for cell viability assessment according to the instructions provided with the CCK-8 kit. […] The growth inhibition of the compounds of the present disclosure on cells was plotted by Prism Graphpad software, and the IC50 values of the compounds of the present disclosure were calculated therefrom. […] Seeding protocol and treatment time for tumor cells

Compound | IC50
O=C1CCN(c2ccc(CN3CCC(N4CCN(c5ccc(-c6cc(F)c7c(c6)C(=O)N(C(C(=O)Nc6nccs6)c6ncn8c6CCC8)C7)cc5)CC4)CC3)cc2)C(=O)N1 (stereo not drawn) [GT-06327, 2-(6,7-dihydro-5H-pyrrolo[1,2-c]imidazol-1-yl)-2-(6-(4-(4-(1-(4-(2,4-dioxotetrahydropyrimidin-1(2H)-yl)benzyl)piperidin-4-yl)piperazin-1-yl)phenyl)-4-fluoro-1-oxoisoindolin-2-yl)-N-(thiazol-2-yl)acetamide] | 1 to 10 nM
CN(Cc1ccc(C2CCC(=O)NC2=O)cc1)C1CCN(c2ccc(-c3cc(F)c4c(c3)C(=O)N(C(C(=O)Nc3nccs3)c3ncn5c3CCC5)C4)cc2)CC1 (stereo not drawn) [GT-05218, 2-(6,7-dihydro-5H-pyrrolo[1,2-c]imidazol-1-yl)-2-(6-(4-(4-((4-(2,6-dioxopiperidin-3-yl)benzyl)(methyl)amino)piperidin-1-yl)phenyl)-4-fluoro-1-oxoisoindolin-2-yl)-N-(thiazol-2-yl)acetamide] | 1 to 10 nM
CN(Cc1ccc(N2CCC(=O)NC2=O)cn1)C1CCN(c2ccc(-c3cc(F)c4c(c3)C(=O)N(C(C(=O)Nc3nccs3)c3ncn5c3CCC5)C4)cc2)CC1 (stereo not drawn) [GT-05282, 2-(6,7-dihydro-5H-pyrrolo[1,2-c]imidazol-1-yl)-2-(6-(4-(4-(((5-(2,4-dioxotetrahydropyrimidin-1(2H)-yl)pyridin-2-yl)methyl)(methyl)amino)piperidin-1-yl)phenyl)-4-fluoro-1-oxoisoindolin-2-yl)-N-(thiazol-2-yl)acetamide] | 1 to 10 nM
O=C1CCN(c2cc(CN3CCN(c4ccc(-c5cc(F)c6c(c5)C(=O)N(C(C(=O)Nc5nccs5)c5ncn7c5CCC7)C6)cc4)CC3)c(F)cn2)C(=O)N1 (stereo not drawn) [GT-07378, 2-(6,7-dihydro-5H-pyrrolo[1,2-c]imidazol-1-yl)-2-(6-(4-(4-((2-(2,4-dioxotetrahydropyrimidin-1(2H)-yl)-5-fluoropyridin-4-yl)methyl)piperazin-1-yl)phenyl)-4-fluoro-1-oxoisoindolin-2-yl)-N-(thiazol-2-yl)acetamide] | 1 to 10 nM
CN(Cc1cccc(N2CCC(=O)NC2=O)c1)C1CCN(c2ccc(-c3cc(F)c4c(c3)C(=O)N(C(C(=O)Nc3nccs3)c3ncn5c3CCC5)C4)cc2)CC1 (stereo not drawn) [GT-05281, 2-(6,7-dihydro-5H-pyrrolo[1,2-c]imidazol-1-yl)-2-(6-(4-(4-((3-(2,4-dioxotetrahydropyrimidin-1(2H)-yl)benzyl)(methyl)amino)piperidin-1-yl)phenyl)-4-fluoro-1-oxoisoindolin-2-yl)-N-(thiazol-2-yl)acetamide] | 1 to 10 nM
O=C1CCN(c2ccc(CN3C4CCC3CN(c3ccc(-c5cc(F)c6c(c5)C(=O)N(C(C(=O)Nc5nccs5)c5ncn7c5CCC7)C6)cc3)C4)nc2)C(=O)N1 (stereo not drawn) [GT-06255, 2-(6,7-dihydro-5H-pyrrolo[1,2-c]imidazol-1-yl)-2-(6-(4-(8-((5-(2,4-dioxotetrahydropyrimidin-1(2H)-yl)pyridin-2-yl)methyl)-3,8-diazabicyclo[3.2.1]octan-3-yl)phenyl)-4-fluoro-1-oxoisoindolin-2-yl)-N-(thiazol-2-yl)acetamide] | 1 to 10 nM
O=C1CCC(c2ccc(CN3C4CCC3CN(c3ccc(-c5cc(F)c6c(c5)C(=O)N(C(C(=O)Nc5nccs5)c5ncn7c5CCC7)C6)cc3)C4)cc2)C(=O)N1 (stereo not drawn) [GT-06252, 2-(6,7-dihydro-5H-pyrrolo[1,2-c]imidazol-1-yl)-2-(6-(4-(8-(4-(2,6-dioxopiperidin-3-yl)benzyl)-3,8-diazabicyclo[3.2.1]octan-3-yl)phenyl)-4-fluoro-1-oxoisoindolin-2-yl)-N-(thiazol-2-yl)acetamide] | 1 to 10 nM
O=C1CCC(Nc2cccc(CN3C[C@H]4C[C@@H]3CN4c3ccc(-c4cc(F)c5c(c4)C(=O)N(C(C(=O)Nc4nccs4)c4ncn6c4CCC6)C5)cc3)c2)C(=O)N1 (stereo partly drawn) [GT-06179, 2-(6,7-dihydro-5H-pyrrolo[1,2-c]imidazol-1-yl)-2-(6-(4-((1R,4R)-5-(3-((2,6-dioxopiperidin-3-yl)amino)benzyl)-2,5-diazabicyclo[2.2.1]heptan-2-yl)phenyl)-4-fluoro-1-oxoisoindolin-2-yl)-N-(thiazol-2-yl)acetamide] | 10 to 50 nM

The next lines start with the values.

IC50 | Compound
1 to 10 nM | O=C1CCN(c2cc(CN3CCN(c4ccc(-c5cc(F)c6c(c5)C(=O)N(C(C(=O)Nc5nccs5)c5ncn7c5CCC7)C6)cc4)CC3)ccn2)C(=O)N1 (stereo not drawn) [GT-07379, 2-(6,7-dihydro-5H-pyrrolo[1,2-c]imidazol-1-yl)-2-(6-(4-(4-((2-(2,4-dioxotetrahydropyrimidin-1(2H)-yl)pyridin-4-yl)methyl)piperazin-1-yl)phenyl)-4-fluoro-1-oxoisoindolin-2-yl)-N-(thiazol-2-yl)acetamide]
1 to 10 nM | O=C1CCN(c2cncc(CN3CCN(c4ccc(-c5cc(F)c6c(c5)C(=O)N(C(C(=O)Nc5nccs5)c5ncn7c5CCC7)C6)cc4)CC3)c2)C(=O)N1 (stereo not drawn) [GT-07380, 2-(6,7-dihydro-5H-pyrrolo[1,2-c]imidazol-1-yl)-2-(6-(4-(4-((5-(2,4-dioxotetrahydropyrimidin-1(2H)-yl)pyridin-3-yl)methyl)piperazin-1-yl)phenyl)-4-fluoro-1-oxoisoindolin-2-yl)-N-(thiazol-2-yl)acetamide]
1 to 10 nM | O=C1CCC(c2cnc(F)c(CN3CCN(c4ccc(-c5cc(F)c6c(c5)C(=O)N(C(C(=O)Nc5nccs5)c5ncn7c5CCC7)C6)cc4)CC3)c2)C(=O)N1 (stereo not drawn) [GT-07490, 2-(6,7-dihydro-5H-pyrrolo[1,2-c]imidazol-1-yl)-2-(6-(4-(4-((5-(2,6-dioxopiperidin-3-yl)-2-fluoropyridin-3-yl)methyl)piperazin-1-yl)phenyl)-4-fluoro-1-oxoisoindolin-2-yl)-N-(thiazol-2-yl)acetamide]
1 to 10 nM | CN(Cc1cc(C2CCC(=O)NC2=O)cnc1F)C1CCN(c2ccc(-c3cc(F)c4c(c3)C(=O)N(C(C(=O)Nc3nccs3)c3ncn5c3CCC5)C4)cc2)CC1 (stereo not drawn) [GT-07560, 2-(6,7-dihydro-5H-pyrrolo[1,2-c]imidazol-1-yl)-2-(6-(4-(4-(((5-(2,6-dioxopiperidin-3-yl)-2-fluoropyridin-3-yl)methyl)(methyl)amino)piperidin-1-yl)phenyl)-4-fluoro-1-oxoisoindolin-2-yl)-N-(thiazol-2-yl)acetamide]
10 to 50 nM | CN(Cc1cc(N2CCC(=O)NC2=O)ncc1F)C1CCN(c2ccc(-c3cc(F)c4c(c3)C(=O)N(C(C(=O)Nc3nccs3)c3ncn5c3CCC5)C4)cc2)CC1 (stereo not drawn) [GT-07382, 2-(6,7-dihydro-5H-pyrrolo[1,2-c]imidazol-1-yl)-2-(6-(4-(4-(((2-(2,4-dioxotetrahydropyrimidin-1(2H)-yl)-5-fluoropyridin-4-yl)methyl)(methyl)amino)piperidin-1-yl)phenyl)-4-fluoro-1-oxoisoindolin-2-yl)-N-(thiazol-2-yl)acetamide]
10 to 50 nM | O=C1CCC(Nc2ncccc2CN2CCN(c3ccc(-c4cc(F)c5c(c4)C(=O)N(C(C(=O)Nc4nccs4)c4ncn6c4CCC6)C5)cc3)CC2)C(=O)N1 (stereo not drawn) [GT-07489, 2-(6,7-dihydro-5H-pyrrolo[1,2-c]imidazol-1-yl)-2-(6-(4-(4-((2-((2,6-dioxopiperidin-3-yl)amino)pyridin-3-yl)methyl)piperazin-1-yl)phenyl)-4-fluoro-1-oxoisoindolin-2-yl)-N-(thiazol-2-yl)acetamide]
10 to 50 nM | O=C1CCC(c2cnc(F)c(CN3C[C@H]4C[C@@H]3CN4c3ccc(-c4cc(F)c5c(c4)C(=O)N(C(C(=O)Nc4nccs4)c4ncn6c4CCC6)C5)cc3)c2)C(=O)N1 (stereo partly drawn) [GT-07562, 2-(6,7-dihydro-5H-pyrrolo[1,2-c]imidazol-1-yl)-2-(6-(4-((1R,4R)-5-((5-(2,6-dioxopiperidin-3-yl)-2-fluoropyridin-3-yl)methyl)-2,5-diazabicyclo[2.2.1]heptan-2-yl)phenyl)-4-fluoro-1-oxoisoindolin-2-yl)-N-(thiazol-2-yl)acetamide]
1 to 10 nM | CN(Cc1ccc(C2CCC(=O)NC2=O)cn1)C1CCN(c2ccc(-c3cc(F)c4c(c3)C(=O)N(C(C(=O)Nc3nccs3)c3ncn5c3CCC5)C4)cc2)CC1 (stereo not drawn) [GT-07385, 2-(6,7-dihydro-5H-pyrrolo[1,2-c]imidazol-1-yl)-2-(6-(4-(4-(((5-(2,6-dioxopiperidin-3-yl)pyridin-2-yl)methyl)(methyl)amino)piperidin-1-yl)phenyl)-4-fluoro-1-oxoisoindolin-2-yl)-N-(thiazol-2-yl)acetamide]
1 to 10 nM | O=C1CCC(c2ccc(CN3CCN(c4ccc(-c5cc(F)c6c(c5)C(=O)N(C(C(=O)Nc5nccs5)c5ncn7c5CCC7)C6)cc4)CC3)nc2)C(=O)N1 (stereo not drawn) [GT-07381, 2-(6,7-dihydro-5H-pyrrolo[1,2-c]imidazol-1-yl)-2-(6-(4-(4-((5-(2,6-dioxopiperidin-3-yl)pyridin-2-yl)methyl)piperazin-1-yl)phenyl)-4-fluoro-1-oxoisoindolin-2-yl)-N-(thiazol-2-yl)acetamide]
1 to 10 nM | O=C1CCC(c2cc(CN3CCN(c4ccc(-c5cc(F)c6c(c5)C(=O)N(C(C(=O)Nc5nccs5)c5ncn7c5CCC7)C6)cc4)CC3)ccn2)C(=O)N1 (stereo not drawn) [GT-07392, 2-(6,7-dihydro-5H-pyrrolo[1,2-c]imidazol-1-yl)-2-(6-(4-(4-((2-(2,6-dioxopiperidin-3-yl)pyridin-4-yl)methyl)piperazin-1-yl)phenyl)-4-fluoro-1-oxoisoindolin-2-yl)-N-(thiazol-2-yl)acetamide]
